Results published in patent US20190350964A1, “ANTI-CANCER COMPOUNDS AND USES THEREOF” (NATIONAL UNIVERSITY OF SINGAPORE, priority 2016, published 2019).

Legend:
SNU620 = experiment: MTT cytotoxicity test (GI50); assay type: cell-based; settings: Homo sapiens; SNU620, cancer, gastric; MTT 72 h
SNU1 = experiment: MTT cytotoxicity test (GI50); assay type: cell-based; settings: Homo sapiens; SNU1, cancer, gastric; MTT 72 h
SNU1750 = experiment: MTT cytotoxicity test (GI50); assay type: cell-based; settings: Homo sapiens; SNU1750, cancer, gastric; MTT 72 h
Hep3 = experiment: MTT cytotoxicity test (GI50); assay type: cell-based; settings: Homo sapiens; Hep3, cancer, liver; MTT 72 h
SNU449 = experiment: MTT cytotoxicity test (GI50); assay type: cell-based; settings: Homo sapiens, SNU-449; SNU449, cancer, liver; MTT 72 h
MCF7 = experiment: MTT cytotoxicity test (GI50); assay type: cell-based; settings: Homo sapiens; MCF7, cancer, breast; MTT 72 h
human normal cell lines = experiment: MTT cytotoxicity test, panel of human normal cell lines; assay type: cell-based; settings: mean over panel of human normal cell lines; MTT 72 h
PI5P4Ks = experiment: Cellular PI5P4Ks activity assay in HeLa cells (PIP4KII Activity Assay Kit); assay type: cell-based, human; settings: HeLa cells treated 24 h, lysate assayed with PI(5)P; read-out: IC50, combined cellular PI5P4Ks
Experimental: HeLa cells were treated with DMSO or compounds for 24 h. Cells were lysed with RIPA buffer (Sigma-Aldrich), and total protein concentrations were measured using a bicinchoninic acid protein assay kit (Thermo Scientific). Next, 10 μg of cell lysate was incubated with 1 μM PI(5)P and 500 nM ATP for 1 h at 37° C. PI5P4K activity was measured by recording luminescent signals (Tecan) using a PIP4KII Activity Assay Kit (Echelon) according to the manufacturer's instructions. For cell-free PI5P4Kα activity assays, serial dilutions of compounds were pre-incubated with 1 ng of PI5P4Kα (kind gift from Daiichi Sankyo Co., Ltd. and Daiichi Sankyo RD Novare Co., Ltd.) in reaction buffer [50 mM HEPES (pH 7.0), 13 mM MgCl2, 0.005% CHAPS, 0.01% BSA, 2.5 mM DTT] for 1 h at 25° C. DOPS (80 μM, Avanti polar lipids), PI(5)P (20 μM, Echelon) and ATP (10 μM, Sigma-Aldrich) were added and further incubated for 90 min at room temperature. PI5P4Kα activity was measured by recording luminescent signals (Tecan) using an ADP-Glo Kinase Assay (Promega) according to the manufacturer's protocol.

[1] = molecular target: T1, Phosphatidylinositol 5-phosphate 4-kinase type-2 gamma (Homo sapiens, UniProt Q8TBX8); experiment: MS-CETSA in normal BJ cell lysates; assay type: binding; settings: lysate, 100 μM compound
T1 construct: After collecting data covering >8,000 proteins in lysates of normal BJ cells; endogenous in cells; host or cells: normal BJ cells, lysate
Experimental: Target identification was performed by cellular thermal shift assay (CETSA) coupled with quantitative mass spectrometry. In brief, normal BJ cells were lysed by combination of freeze/thaw and mechanical shearing with needle in buffer [50 mM HEPES (pH 7.5), 5 mM β-glycerophosphate, 0.1 mM Sodium Vanadate, 10 mM MgCl2, 1 mM TCEP and 1× Protease inhibitor Cocktail]. The cell debris was removed by centrifugation at 20,000 g for 20 min at 4° C. […] Each lysate was divided into 10 aliquots for heat treatment at the respective temperatures for 3 min in a 96-well thermocycler, followed by 3 min at 4° C. The lysate was centrifuged at 20,000 g for 20 min at 4° C. and the supernatant was transferred into microtubes for MS sample preparation.
After lysis, at least 100 μg of the protein (measured with a BCA assay) was subjected to reduction, denaturation and alkylation. Samples were subsequently incubated with sequencing grade LysC (Wako) and trypsin (Promega) for digestion overnight at 37° C. The digested samples were dried using a centrifugal vacuum evaporator, solubilized in 100 mM TEAB. […]
Proteins for which a low temperature plateau was not present were deleted using a cut off >0.85 for the average reading of the first three temperature points (in our experience proteins melting already at −37° C. are more prone to give false positives in a shift analysis).

[2] = system: MDA-MB-231 human breast tumor cells; experiment: MDA-MB-231 tumor xenograft in nude mice; assay type: in vivo, mouse; settings: a131 20 mg/kg, b5 40-80 mg/kg, PO or IP twice daily, 15 days
Text: BALB/c athymic female nude mice (nu/nu, 5-7 weeks) (InVivos) were kept under specific pathogen-free (SPF) conditions. The care and use of mice was approved by the Duke-NUS IACUC in accordance with protocol 2015/SHS/1030. HCT15 human colon cancer cells (5×10^6) or MDA-MB-231 human breast cancer cells (4×10^6 with Matrigel) were subcutaneously injected into the flanks of mice. When the mean tumor volume reached 100-300 mm^3 (Day 1), the mice were randomly divided into experimental groups of 6 mice by an algorithm that moves animals around to achieve the best case distribution to assure that each treatment group has similar mean tumor burden and standard deviation. No statistical method was used to predetermine sample size. […] Tumor dimensions were measured using calipers, and tumor volume (mm^3) was calculated using the formula width^2×length/2 in a blinded fashion. […] Images were acquired in 3D-SIM mode using a super resolution microscope (Nikon), and the number of cells with either 2 or mitotic-spindles was quantified (n>50 cells per section, 6-7 sections per treatment). […] For the DAB image, a fixed threshold was used, watershed applied and the number of DAB stained nuclei counted. In all cases, no data or animals were excluded and results are expressed as mean and standard deviation of the mean.

T1 sequence (Q8TBX8 whole entry): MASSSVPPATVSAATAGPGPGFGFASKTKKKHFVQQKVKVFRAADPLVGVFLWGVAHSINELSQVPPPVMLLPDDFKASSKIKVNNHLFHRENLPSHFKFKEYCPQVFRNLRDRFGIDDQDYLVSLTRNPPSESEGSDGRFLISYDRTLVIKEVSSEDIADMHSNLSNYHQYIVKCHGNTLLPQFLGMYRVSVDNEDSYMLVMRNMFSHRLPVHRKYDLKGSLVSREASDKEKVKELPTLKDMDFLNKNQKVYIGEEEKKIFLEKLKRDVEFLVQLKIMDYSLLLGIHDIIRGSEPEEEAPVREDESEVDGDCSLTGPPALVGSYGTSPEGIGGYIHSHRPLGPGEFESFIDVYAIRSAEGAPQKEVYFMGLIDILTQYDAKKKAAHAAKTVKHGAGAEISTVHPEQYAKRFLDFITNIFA

## N#C/C(=C\c1cccc2cnccc12)c1c[nH]c2ccccc12 [a131, (Z)-2-(1H-indol-3-yl)-3-(5-isoquinolyl)prop-2-enenitrile]
SNU620
  GI50: 1000 nM
SNU1
  GI50: 900 nM
SNU1750
  GI50: 700 nM
Hep3
  GI50: 3700 nM
SNU449
  GI50: 2300 nM
MCF7
  GI50: 1200 nM
Human normal cell lines
  GI50: 6500 nM
PI5P4Ks
  IC50: 600 nM
[1]
  ED score: 0.5989
[1]; read-out: mean Delta Tm
  ΔTm at 100 µM: 2.89 °C
[2]
  antitumor activity (tumor volume): marked antitumor efficacies
